# Assay results reported in patent US20070219236A1, “Dialkoxy-Imidazopyridines Derivatives” (Atlanta Pharma AG, priority 2004, published 2007).
# Test system: pentagastrin-stimulated acid secretion of the perfused rat stomach
# Test: Secretion-inhibiting action on the perfused rat stomach (pentagastrin-stimulated acid secretion)
# Assay type: in vivo
# Conditions: anesthetized CD rat, female; dose 2 μmol/kg i.d. (intraduodenal); pentagastrin 1 μg/kg i.v. continuous infusion
# Excerpt: Testing of the Secretion-Inhibiting Action on the Perfused Rat Stomach
# In Table A which follows, the influence of the compounds according to the invention on the pentagastrin-stimulated acid secretion of the perfused rat stomach after intraduodenal administration in vivo is shown.
# The abdomen of anesthetized rats (CD rat, female, 200-250 g; 1.5 g/kg i.m. urethane) was opened after tracheotomy by a median upper abdominal incision and a PVC catheter was fixed transorally in the esophagus and another via the pylorus such that the ends of the tubes just projected into the gastric lumen. The catheter leading from the pylorus led outward into the right abdominal wall through a side opening.
# After thorough rinsing (about 50-100 ml), warm (37° C.) physiological NaCl solution was continuously passed through the stomach (0.5 ml/min, pH 6.8-6.9; Braun-Unita I). The pH (pH meter 632, glass electrode EA 147; Φ=5 mm, Metrohm) and, by titration with a freshly prepared 0.01N NaOH solution to pH 7 (Dosimat 665 Metrohm), the secreted HCl were determined in the effluent in each case collected at an interval of 15 minutes.
# The gastric secretion was stimulated by continuous infusion of 1 μg/kg (=1.65 ml/h) of i.v. pentagastrin (left femoral vein) about 30 min after the end of the operation (i.e. after determination of 2 preliminary fractions). The substances to be tested were administered intraduodenally in a 2.5 ml/kg liquid volume 60 min after the start of the continuous pentagastrin infusion.
# The body temperature of the animals was kept at a constant 37.8-38° C. by infrared irradiation and heat pads (automatic, stepless control by means of a rectal temperature sensor).
row,SMILES,Inhibition of acid secretion (%)
1,"COc1ccc2nc([S+]([O-])Cc3nccc(OC)c3OC)[nH]c2n1 (stereo not drawn) [Example 1, 2-(3,4-Dimethoxy-pyridine-2-ylmethanesulfinyl)-5-methoxy-3H-imidazo[4,5-b]pyridine]",>50
2,"COc1ccc2nc([S@@+]([O-])Cc3nccc(OC)c3OC)[nH]c2n1 [Example 2, (S)-2-(3,4-Dimethoxy-pyridine-2-ylmethanesulfinyl)-5-methoxy-3H-imidazo[4,5-b]pyridine]",>50
3,"COc1ccc2nc([S@+]([O-])Cc3nccc(OC)c3OC)[nH]c2n1 [Example 3, (R)-2-(3,4-Dimethoxy-pyridine-2-ylmethanesulfinyl)-5-methoxy-3H-imidazo[4,5-b]pyridine]",>50
